One series addresses T1, 5α-reductase (Rattus norvegicus, UniProt P24008).
T1 construct: After centrifuging the homogenate at 10,000 xg for 10 minutes, the supernatant was […] to prepare an enzyme solution; from tissue; host or cells: liver of 7-week-old male SD rat (10,000 x g supernatant of homogenate)
T1 sequence (P24008 1-259): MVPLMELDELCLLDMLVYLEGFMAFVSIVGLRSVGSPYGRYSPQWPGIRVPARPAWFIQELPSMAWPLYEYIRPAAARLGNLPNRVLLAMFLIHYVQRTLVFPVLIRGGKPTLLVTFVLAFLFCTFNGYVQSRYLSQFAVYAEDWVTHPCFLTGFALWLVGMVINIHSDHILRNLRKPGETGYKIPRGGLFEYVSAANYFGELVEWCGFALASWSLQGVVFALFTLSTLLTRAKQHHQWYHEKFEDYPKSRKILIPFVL
Nature of the series: 5α-reductase enzyme activity inhibition (rat liver homogenate, testosterone quantified by HPLC). The series is classed as biochemical. The note with it: treated at 125 μg/ml, 250 μg/ml, or 500 μg/ml; 37° C., 30 minutes; FIGS. 7A and 7B. As to the method:
5α-reductase reduces testosterone to produce dihydrotestosterone (DHT). After reacting rat liver homogenate with testosterone, the ability to inhibit 5α-reductase enzyme activity was measured using a method of quantify testosterone.
First, a 7-week-old male SD rat was prepared and anesthetized using ethyl ether. After SD rats were laparotomised, the hepatic portal vein thereof was nicked, and cold STM buffer (270 mM sucrose, 10 mM Tris-HCl, pH7.5, 1 mM MgCl2, G-biosciences, USA) was injected into the left ventricle using a syringe. The injection was continued until the STM buffer was perfused into the liver and the color of the liver changed from dark red to light pink. Afterwards, the liver was removed, transferred to a beaker, cut with scissors, and homogenized after adding STM buffer in an amount three times that of the liver. After centrifuging the homogenate at 10,000 xg for 10 minutes, the supernatant was […] to prepare an enzyme solution. […] The dichloromethane layer was separated, concentrated, dissolved in 50% methanol, and quantified using high-performance chromatography. The 5α-reductase inhibition ability was calculated using the formula: 5α-reductase inhibition ability (%)=[1−(area value of sample-area value of blank sample)/(area value of test group-area value of blank sample)]×100.

Series [1] relates to human follicle dermal papilla cells (HFDPC). Nature of the series: Cytotoxicity in dermal papilla cells (MTT assay). The series is classed as cell-based. The note with it: 24 hours. Here is the method:
It was confirmed whether the Hydrangea serrata extract and hydrangenol obtained according to Examples 1 and 2 were cytotoxic to human follicle dermal papilla cells (HFDPC).
HFDPC cells were cultured in follicle dermal papilla cell growth medium including supplement mix (5% fetal calf serum, 0.5% bovine pituitary extract, 0.5 μg basic fibroblast growth factor, and 2.5 mg insulin) and 1% antibiotic antimycotic solution. HDFPC cell lines were seeded into a 96-well plate at a concentration of 1.0×10^4 cells/well and incubated in a CO2 incubator conditioned at 37° C., 95% humidity, and 5% CO2 for 24 hours. Subsequently, the medium was replaced with medium without supplement mix and was treated with samples of each concentration and after 24 hours of incubation, cell viability was measured by MTT assay. The MTT assay is a method to measure the amount of formazan formed from MTT reduced by the mitochondria of living cells. More specifically, 100 μl of 0.5 mg/mL MTT solution was applied to each cell and incubated for 4 hours. Then, the solution was completely removed and the absorbance of the plate dissolved in DMSO was measured at 540 nm.
In general terms: Tetrazolium dyes change colour on reduction, which living cells bring about.

Another series relates to HFDPC cell lines. Nature of the series: Cell proliferation in dermal papilla cells (MTT assay). The series is classed as cell-based, human. The note with it: treated for 3 and 6 days, 25 μg/ml and 50 μg/ml. Here is the method:
Based on the results of the dermal papilla cell toxicity test confirmed above, the cell proliferation effect of the Hydrangea serrata extract and hydrangenol obtained in Examples 1 and 2 was confirmed. HFDPC cell lines were seeded into a 96-well plate at a concentration of 1.0×10^3 cells/well and incubated in a CO2 incubator conditioned at 37° C., 95% humidity, and 5% CO2 for 24 hours. Subsequently, after treatment with samples at each concentration, cell proliferation was measured by MTT assay after 1, 3, and 6 days of incubation. More specifically, after treatment with samples of each concentration, the incubation was proceeded for 24, 72, and 144 hours, and then each cell was treated with 100 μl of 0.5 mg/ml MTT solution, and after 4 hours, the solution was completely removed and the plates dissolved in DMSO were measured at an absorbance of […].

In the case of `O=C1OC(c2ccc(O)cc2)Cc2cccc(O)c21` (stereo not shown) [hydrangenol, 8-hydroxy-3-(4-hydroxyphenyl)-3,4-dihydroisochromen-1-one], on 5α-reductase, the 5α-reductase inhibitory activity is 5α-reductase inhibitory activity in a concentration-dependent manner. Besides, the “cytotoxicity (cell viability by MTT)” value in series [1] (1.56, 3.12, 6.25, 12.5, 25, 50 and 100 μg/ml) is reported as “no cytotoxicity was shown at all concentrations”. The cell growth entry in series [1] (concentrations of 3.12 μg/ml to 100 μg/ml) is on record as “significantly increase cell growth”. In the series on HFDPC cell lines, the “cell growth (cell proliferation by MTT)” value is listed as “cell growth was significantly increased”.

Source of the values: US20250090439A1, “COMPOSITION COMPRISING HYDRANGENOL AS ACTIVE INGREDIENT FOR IMPROVING HAIR OR SCALP CONDITION” (COSMAX BIO CO., LTD., priority 2021, published 2025).
